In article PMC12557367, ““Precision on Two Wheels”–Structural Refinement of ^64Cu- and ^68Ga-Labeled Bicyclic Peptides Targeting Nectin‑4 for Improved Tumor Imaging: From Preclinical Development to First-in-Human Application” (Journal of Medicinal Chemistry, 2025):
Numbered stars: 1 amine (or outer) side, 2 acyl side, 3 side chain; on linkers, the order of the positions; unused ones are H or OH. Bridge positions count the residues as written; N and C are the ends. Square brackets hold non-standard residues; d marks the D form. Peptide text beside a SMILES is read from it. * marks the point of attachment. DOTA = O=C(O)CN1CCN(CC(=O)O)CCN(CC(=O)*)CCN(CC(=O)O)CC1; TATA = O=C(CC[*:1])N1CN(C(=O)CC[*:2])CN(C(=O)CC[*:3])C1; 2Nal = N[C@@H](Cc1ccc2ccccc2c1)C(=O)O; Hyp = O=C(O)[C@@H]1C[C@@H](O)CN1

Key:
[1] = target: T1, recombinant human nectin-4 (Homo sapiens, UniProt Q96NY8); assay: Fluorescence anisotropy (FA) direct binding of fluorescent probes; conditions: 1 nM probe
T1 construct: close to the value determined for the complete extracellular domain of nectin-4 (0.94 nM); purchased R&D Systems 2659-N4
T1 sequence (Q96NY8 32-349 limits assumed): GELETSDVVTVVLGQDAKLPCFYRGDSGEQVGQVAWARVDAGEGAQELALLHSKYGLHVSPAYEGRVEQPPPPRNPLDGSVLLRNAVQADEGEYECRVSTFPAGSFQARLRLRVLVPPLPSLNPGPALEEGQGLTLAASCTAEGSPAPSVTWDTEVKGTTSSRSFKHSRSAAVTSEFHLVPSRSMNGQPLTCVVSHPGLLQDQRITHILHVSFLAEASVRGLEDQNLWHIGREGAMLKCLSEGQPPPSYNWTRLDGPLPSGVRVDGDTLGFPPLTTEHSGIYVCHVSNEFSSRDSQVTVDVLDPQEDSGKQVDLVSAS
Text: For characterizing the binding affinity of the bicyclic peptides toward nectin-4, we envisaged a fluorescence anisotropy-based competitive binding assay. Mudd et al. also used such an assay for the development of the bicycle drug conjugate BT8009. Herein, the peptidic scaffold of BT8009 was used as a basis for the required fluorescent nectin-4-ligand (probe) with either 6-TAMRA (1a) or 6-FAM (1b) being attached at the N-terminal Cys residue. […] In this context, the binding of the probe to nectin-4 was started by the addition of nectin-4, followed by continuous fluorescence measurements over 20 min. It is worth noting that a slight initial increase in the FA values could be observed for both probes (FA values at <300 s in Figure S1); however, this putative time-dependent association appeared to be too fast to analyze it. […]
All measurements were conducted at 37 °C over 1200 s (interval of 37 s) using a Cytation 5 multimode microplate reader (BioTek Instruments, Software Gen 5) and black 96-well microplates (BRANDplates with F-bottom wells). […] The FA (r) was calculated by Gen 5 software from the measured parallel and perpendicular fluorescence intensities (I ∥ and I ⊥, respectively) according to eq using a G factor of 0.87 (preset value). r=I∥−G×I⊥/I∥+2G×I⊥ 1 […]

[2] = target: T2, recombinant N-terminal Ig-like V domain of nectin-4 (Homo sapiens, UniProt Q96NY8); assay: FA direct binding of probe 1a to Ig-like V domain
T2 construct: probe 1a to the N-terminal Ig-like V domain of nectin-4 (Acro Biosystems, NE4-H82Ea); purchased Acro Biosystems NE4-H82Ea
T2 sequence (Q96NY8 32-144 limits assumed): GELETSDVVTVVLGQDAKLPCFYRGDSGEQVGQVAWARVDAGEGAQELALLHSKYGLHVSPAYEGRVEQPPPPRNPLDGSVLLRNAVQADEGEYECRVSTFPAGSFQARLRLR
Text: For direct binding of probe 1a to the N-terminal Ig-like V domain of nectin-4 (Acro Biosystems, NE4-H82Ea), the same procedure as described previously was applied.

HT-1376 cells [3] = assay: Flow cytometry with fluorescent probe; assay type: cell-based, human; conditions: 1 µM probe, on ice 1 h; 5637 cells as negative
Experimental: For flow cytometry analysis, HT-1376 and 5637 cells were rinsed with PBS three times and dissociated from a flask by using 50 mM EDTA and a cell scraper. Aliquots of the cell suspension containing 1 × 10^6 cells were pelleted at 300×g for 7 min, and one pellet of each cell line was dissolved in fresh PBS + 3% BSA containing 1 μM of probe 1b. As a negative control, one HT-1376 pellet was dissolved only in PBS + 3% BSA. The cells were incubated on ice for 1 h before they were pelleted again. The staining solution was discarded, and the pellet was washed in 1 mL of PBS + 0.5% BSA + 2 mM EDTA (FACS wash buffer) and centrifuged again. The washing step was repeated a total of three times. After the last wash, the pellets were dissolved in 500 μL of FACS wash buffer and analyzed with an Attune NxT Flow Cytometer (Invitrogen). For the detection, the BL1 laser with an excitation of 488 nm and an emission filter of 530/30 nm set to a Voltage of 270 was used. The forward scatter was set to a voltage of 80 or 120, and the sideward scatter was set to 320 or 370 for HT-1376 or 5637 cells, respectively. A sample of 50 μL was analyzed at a speed of 100 μL/min, leading to a total of 35410 and 34992 analyzed events (singlets) for HT-1376 and 5637 cells, respectively.

[4] = target: T1, recombinant human nectin-4; assay: FA-based competitive binding assay with probe 1a
HT-1376 cells [5] = assay: Saturation binding assay on intact cells; assay type: cell-based, human; conditions: ^68Ga-labeled ligand, intact HT-1376 cells, ±SD
nectin-4 = target: nectin-4; parameters: method as in Duan et al.; conditions: SPR, buffer pH 4.0; ref Duan et al.; read-out: binding affinity; cited from earlier work

Compound	dynamic range (ΔFA = mA of bound probe – mA of free probe) [1]	Kd [2] [µM]	binding of probe to cells (FACS) (HT-1376 cells [3])	factor less potent than DOTA conjugate 1f ([4]; FA K d ratio) [fold]	Hill coefficient n ([4]; competitive binding curve, variable slope)	Kd (HT-1376 cells [5]; 60 min, PBS wash, apparent) [µM]	B max (fmol/mg) (HT-1376 cells [5])	Kd (nectin-4) [µM]
CSCC[C@@H]1NC(=O)[C@@H]2CSCCC(=O)N3CN(CN(C3)C(=O)CCSC[C@H](NC(=O)c3ccc(C(=O)O)c(-c4c5ccc(=[N+](C)C)cc-5oc5cc(N(C)C)ccc45)c3)C(=O)N3CCC[C@H]3C(=O)N[C@@H](Cc3cccc4ccccc34)C(=O)N[C@H](CC(=O)O)C(=O)N2)C(=O)CCSC[C@@H](C(N)=O)NC(=O)[C@H](Cc2c[nH]c3ccccc23)NC(=O)[C@@H]2C[C@@H](O)CN2C(=O)[C@@H]2CCCN2C(=O)[C@H]([C@@H](C)O)NC(=O)[C@H](CO)NC(=O)[C@H](Cc2c[nH]c3ccccc23)NC(=O)[C@H](CC(=O)O)NC(=O)[C@H](CCCCNC(=N)N)NC1=O [1a]	100 (±3) mA	0.0013						
CSCC[C@@H]1NC(=O)[C@@H]2CSCCC(=O)N3CN(CN(C3)C(=O)CCSC[C@H](NC(=O)c3ccc(C(=O)O)c(-c4c5ccc(=O)cc-5oc5cc(O)ccc45)c3)C(=O)N3CCC[C@H]3C(=O)N[C@@H](Cc3cccc4ccccc34)C(=O)N[C@H](CC(=O)O)C(=O)N2)C(=O)CCSC[C@@H](C(N)=O)NC(=O)[C@H](Cc2c[nH]c3ccccc23)NC(=O)[C@@H]2C[C@@H](O)CN2C(=O)[C@@H]2CCCN2C(=O)[C@H]([C@@H](C)O)NC(=O)[C@H](CO)NC(=O)[C@H](Cc2c[nH]c3ccccc23)NC(=O)[C@H](CC(=O)O)NC(=O)[C@H](CCCCNC(=N)N)NC1=O [1b]	86 (±7) mA		Nectin-4-specific binding					
CSCC[C@@H]1NC(=O)[C@@H]2CSCCC(=O)N3CN(CN(C3)C(=O)CCSC[C@H](NC(=O)CN3CCN(CC(=O)O)CCN(CC(=O)O)CCN(CC(=O)O)CC3)C(=O)N3CCC[C@H]3C(=O)N[C@@H](Cc3ccc4ccccc4c3)C(=O)N[C@H](CC(=O)O)C(=O)N2)C(=O)CCSC[C@@H](C(=O)O)NC(=O)[C@H](Cc2c[nH]c3ccccc23)NC(=O)[C@@H]2C[C@@H](O)CN2C(=O)[C@@H]2CCCN2C(=O)[C@H]([C@@H](C)O)NC(=O)[C@H](CO)NC(=O)[C@H](Cc2c[nH]c3ccccc23)NC(=O)[C@H](CC(=O)O)NC(=O)[C@H](CCCNC(=N)N)NC1=O [8d, reference compound] ({DOTA}-CP[2Nal][dD]CMRDWSTP[Hyp]WC-OH; linker 1-5-15 via TATA)				26	2.53	0.222	291 (±77.9) fmol/mg	0.0237
